Measured values published in patent publication US10005721B2, “Dimethylbenzoic acid compounds” (Eli Lilly and Company, priority 2013, dated 2018).

Experiments:
[1] = molecular target: T1, human EP1 (Homo sapiens, UniProt P34995); assay: In vitro binding to human EP1 ([3H]-PGE2 displacement, membranes); conditions: HEK293 membranes, geometric mean ± SD, read-out: hEP1, Ki
T1 construct: expressed in transfected cells
T1 sequence (P34995 1-402): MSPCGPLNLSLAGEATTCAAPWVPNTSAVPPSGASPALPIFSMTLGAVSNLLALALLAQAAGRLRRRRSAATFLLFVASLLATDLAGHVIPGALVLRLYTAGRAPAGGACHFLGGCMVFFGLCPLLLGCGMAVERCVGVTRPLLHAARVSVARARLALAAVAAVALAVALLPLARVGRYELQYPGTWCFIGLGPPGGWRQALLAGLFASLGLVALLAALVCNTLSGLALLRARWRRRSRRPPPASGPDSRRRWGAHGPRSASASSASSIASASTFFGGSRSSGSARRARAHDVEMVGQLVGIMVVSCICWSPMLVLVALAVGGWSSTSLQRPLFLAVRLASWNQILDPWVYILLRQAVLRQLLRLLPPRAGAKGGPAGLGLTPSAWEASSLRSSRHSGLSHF
Procedure: (§1) hEP1 and hEP4 membranes are prepared from recombinant HEK293 cells stably expressing human EP1 (Genbank accession number AY275470) or EP4 (Genbank accession number AY429109) receptors. hEP2 and hEP3 membranes are prepared from HEK293 cells transiently transfected with EP2 (Genbank accession number AY275471) or EP3 (isoform VI: Genbank accession number AY429108) receptor plasmids. Frozen cell pellets are homogenized in homogenization buffer using a Teflon/glass homogenizer. Membrane protein is aliquoted and quick frozen on dry ice prior to storage at −80° C. Homogenization buffer contained 10 mM Tris-HCl, pH 7.4, 250 mM sucrose, 1 mM EDTA, 0.3 mM indomethacin and plus Complete™, with EDTA, obtained from Roche Molecular Biochemicals (Catalog Number 1 697 498).
(§2) Kd values for [^3H]-PGE2 binding to each receptor are determined by saturation binding studies or homologous competition. […] Non-specific binding is calculated by comparing binding in the presence and absence of 2 μM of PGE2. The membranes are harvested by filtration (TomTek harvester), washed 4 times with cold buffer (10 mM MES pH 6.0 with KOH, 10 mM MgCl2), dried in a 60° C. oven, and the radioactivity is quantified as counts per minute (CPM) using a TopCount detector. Percent specific binding is calculated as the percent of the binding in the absence of any inhibitor, corrected for binding in the presence of 2 uM of PGE2. […]

[2] = molecular target: T2, human EP2 (Homo sapiens, UniProt P43116); assay: In vitro binding to human EP2 ([3H]-PGE2 displacement, membranes); conditions: HEK293 membranes, geometric mean ± SD, read-out: hEP2, Ki
T2 construct: expressed in transfected cells; host or cells: HEK293 (transient)
T2 sequence (P43116 whole entry): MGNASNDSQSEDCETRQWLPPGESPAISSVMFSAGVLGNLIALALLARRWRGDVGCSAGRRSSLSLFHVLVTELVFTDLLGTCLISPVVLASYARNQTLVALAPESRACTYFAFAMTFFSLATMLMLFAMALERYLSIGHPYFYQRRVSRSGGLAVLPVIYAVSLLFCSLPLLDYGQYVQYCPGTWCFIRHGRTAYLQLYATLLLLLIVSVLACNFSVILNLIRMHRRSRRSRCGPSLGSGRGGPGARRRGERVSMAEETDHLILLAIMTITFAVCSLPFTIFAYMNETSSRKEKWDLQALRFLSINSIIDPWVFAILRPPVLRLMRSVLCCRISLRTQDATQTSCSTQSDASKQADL
Procedure: as §1, §2

[3] = molecular target: T3, human EP3 (isoform VI) (Homo sapiens, UniProt P43115); assay: In vitro binding to human EP3 ([3H]-PGE2 displacement, membranes); conditions: HEK293 membranes, geometric mean ± SD, read-out: hEP3, Ki
T3 construct: expressed in transfected cells; host or cells: HEK293 (transient)
T3 sequence (P43115 1-374 isoform P43115-4): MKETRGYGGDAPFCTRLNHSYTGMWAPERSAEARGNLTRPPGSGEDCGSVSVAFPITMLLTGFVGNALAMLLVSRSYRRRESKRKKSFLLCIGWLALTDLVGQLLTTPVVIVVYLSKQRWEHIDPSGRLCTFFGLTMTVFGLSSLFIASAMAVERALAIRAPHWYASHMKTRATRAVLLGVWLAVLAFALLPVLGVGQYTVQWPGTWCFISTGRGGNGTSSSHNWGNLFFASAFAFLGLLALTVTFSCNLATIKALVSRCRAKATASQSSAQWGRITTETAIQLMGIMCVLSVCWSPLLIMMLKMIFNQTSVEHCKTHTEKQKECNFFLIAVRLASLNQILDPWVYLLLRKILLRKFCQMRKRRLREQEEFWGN
Procedure: as §1, §2

[4] = molecular target: T4, human EP4 (Homo sapiens, UniProt P35408); assay: In vitro binding to human EP4 ([3H]-PGE2 displacement, membranes); conditions: HEK293 membranes, geometric mean ± SD, read-out: hEP4, Ki
T4 construct: expressed in transfected cells
T4 sequence (P35408 whole entry): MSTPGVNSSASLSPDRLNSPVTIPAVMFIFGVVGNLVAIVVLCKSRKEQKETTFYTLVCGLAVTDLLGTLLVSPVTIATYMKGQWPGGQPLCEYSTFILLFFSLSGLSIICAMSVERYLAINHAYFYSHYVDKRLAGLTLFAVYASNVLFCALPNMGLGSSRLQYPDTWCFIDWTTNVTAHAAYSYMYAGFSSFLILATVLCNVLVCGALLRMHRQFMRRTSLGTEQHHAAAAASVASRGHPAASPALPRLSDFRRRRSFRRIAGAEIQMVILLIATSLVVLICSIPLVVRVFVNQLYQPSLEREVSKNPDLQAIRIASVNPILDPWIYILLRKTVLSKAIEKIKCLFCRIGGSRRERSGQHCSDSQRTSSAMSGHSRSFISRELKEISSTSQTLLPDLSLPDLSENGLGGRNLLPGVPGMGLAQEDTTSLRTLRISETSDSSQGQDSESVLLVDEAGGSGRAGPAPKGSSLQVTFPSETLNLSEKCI
Procedure: as §1, §2

[5] = molecular target: T4, human EP4; assay: In vitro human EP4 functional antagonist activity (PGE2-stimulated cAMP, HTRF, HEK293); assay type: cell-based; conditions: HEK293 cells expressing human EP4, EC80 of PGE2; geometric mean ± SD; read-out: IC50, inhibition of PGE2-stimulated cAMP production, human EP4
Procedure: Assays are conducted in recombinant HEK293 cells stably expressing human EP4 receptor. The cell lines are maintained by culturing in DMEM with high glucose and pyridoxine hydrochloride (Invitrogen) supplemented with 10% fetal bovine serum (FBS), 1 mM sodium pyruvate, 10 mM HEPES, […] and 2 mM L-glutamine. Confluent cultures are grown at 37° C. in an atmosphere containing 5% CO2. Cells are harvested using 2.5% Trypsin-EDTA, suspended in freeze media (FBS with 6% DMSO) at 10^7 cells/mL and aliquots are stored in liquid nitrogen. Just before assay, cells are thawed in DMEM, centrifuged, and resuspended in cAMP buffer.
The inhibition of PGE2-stimulated cAMP production by EP4 antagonists is measured using HTRF; (Cisbio catalog #62AM4PEB). […] The HTRF signal is detected using an EnVision® plate reader (Perkin-Elmer) to calculate the ratio of fluorescence at 665 nm to 620 nm. […] Results are expressed as the geometric mean±standard deviation; n=number of independent determinations. The standard deviation is calculated by the delta method, being Slog IC50×geometric mean×ln(10).

[6] = molecular target: T5, rat EP4 (Rattus norvegicus, UniProt P43114); assay: In vitro rat EP4 functional antagonist activity (PGE2-stimulated cAMP, HTRF, HEK293); assay type: cell-based; conditions: HEK293 cells expressing rat EP4, PGE2 at EC80, cAMP HTRF; read-out: IC50 measured at rat EP4
T5 construct: expressed in transfected cells
T5 sequence (P43114 whole entry): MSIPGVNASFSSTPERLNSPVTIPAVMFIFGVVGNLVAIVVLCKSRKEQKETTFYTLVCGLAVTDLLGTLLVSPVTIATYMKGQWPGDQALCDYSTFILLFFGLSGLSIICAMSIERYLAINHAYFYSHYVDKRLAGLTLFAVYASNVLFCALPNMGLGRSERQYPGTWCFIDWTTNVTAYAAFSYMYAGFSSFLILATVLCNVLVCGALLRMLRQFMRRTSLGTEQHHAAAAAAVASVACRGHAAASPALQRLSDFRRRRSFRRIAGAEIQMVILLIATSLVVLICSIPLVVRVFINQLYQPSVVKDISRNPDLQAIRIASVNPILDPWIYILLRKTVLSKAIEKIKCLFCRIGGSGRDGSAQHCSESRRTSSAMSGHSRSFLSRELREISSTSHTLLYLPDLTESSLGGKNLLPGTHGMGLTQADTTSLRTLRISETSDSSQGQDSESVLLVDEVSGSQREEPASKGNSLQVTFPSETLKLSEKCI
Procedure: Rat EP4 cDNA (Genebank Accession# NM 03276) is cloned into pcDNA 3.1 vector and subsequently transfected in HEK293 cells for receptor expression. Rat EP4 stable clone is scaled up and then frozen down as cell bank for future compounds screening. To test EP4 antagonist compounds in rEP4 cells, thaw the frozen cells and then resuspend cells in cAMP assay buffer. The cAMP buffer is made by HBSS without Phenol Red (Hyclone, SH30268) supplemented with 20 mM HEPES (Hyclone, SH30237), 0.1% BSA (Gibco, 15260) and 125 μM IBMX (Sigma, 15879). The cells are plated into 96-well half area flat-bottom polystyrene black plates (Costar 3694). Compounds are serial diluted with DMSO to give 10-point concentration response curves. Then diluted compounds are added into cAMP assay buffer which contains PGE2 (Cayman 14010, in a concentration predetermined to produce an EC80) at ratio of DMSO/buffer at 1/100. The cells are treated with compounds in the presence of PGE2 (EC80 concentration) for 30 minutes at room temperature. The cAMP levels generated from the cells are quantified by a cAMP HTRF assay kit (Cisbio 62AM4PEC). The plates are read on an EnVision plate reader using HTRF optimized protocol (PerkinElmer). IC50's are calculated using Graphpad Prism (v. 4) nonlinear regression, sigmoidal dose response curve fitting.

[7] = tested on: LPS-induced TNFα production in human whole blood; assay: In vitro antagonist activity in human whole blood (reversal of PGE2 inhibition of LPS-induced TNFα); assay type: cell-based; conditions: 10 μg/mL LPS, 10 nM PGE2, geometric mean ± SD, read-out: IC50, reversal of inhibitory effect of PGE2 on LPS-induced TNFα production
Text: The inhibitory effects of PGE2 on LPS-induced TNFα production from macrophages/monocytes are believed to be mediated by EP4 receptors (See Murase, A., et al., Life Sciences, 82:226-232 (2008)). The ability of the compound of Example 1 to reverse the inhibitory effect of PGE2 on LPS-induced TNFα production in human whole blood is an indicia of functional activity.
Blood is collected from normal volunteer donors into sodium heparin vacutainer tubes. Donors have not taken NSAIDs or celecoxib within 48 hours or glucocorticoids within two weeks of the donation. All tubes/donor are pooled into 50 mL Falcon conical centrifuge tubes and 98 μL/well is distributed into 96-well tissue culture plates (Falcon 3072). […] TNFα levels in 2 μL plasma are quantified by a commercially available enzyme immunoassay (R&D Systems DY210), using Immulon 4 HBX plates (Thermo 3855) and 3,3′,5,5′ tetramethylbiphenyl-4,4′-diamine substrate (KPL 50-76-03). The plates are read at A450-A650 on a plate reader (Molecular Devices Versamax) using SOFTmaxPRO (v. 4.3.1) software. IC50s are calculated using Graphpad Prism (v. 4) nonlinear regression, sigmoidal dose response curve fitting. Results are expressed as the geometric mean±standard deviation; n=number of independent determinations. The standard deviation is calculated by the delta method, being SDlog IC50×geometric mean×ln(10).

Row | Ki [1] [nM] | Ki [2] [nM] | Ki [3] [nM] | Ki [4] [nM] | IC50 [5] [nM] | IC50 [6] [nM] | IC50 [7] [nM] | SMILES
1 | > 18800 | 5850 ± 1010 | > 14800 | 2.18 ± 1.74 | 2.31 ± 2.02 | 1.51 | 59.5 ± 37.8 | Cc1ccc(-c2cccc(CO)c2)cc1C(=O)Nc1c(C)ccc(C(=O)O)c1C [Example 1, 3-[[5-[3-(Hydroxymethyl)phenyl]-2-methyl-benzoyl]amino]-2,4-dimethyl-benzoic acid]
2 | > 17500 | > 18900 | > 14000 | 2.07 ± 1.31 |  |  |  | Cc1ccc(-c2cccc(CO)c2)nc1C(=O)Nc1c(C)ccc(C(=O)O)c1C [Example 22, 3-[[6-[3-(Hydroxymethyl)phenyl]-3-methyl-pyridine-2-carbonyl]amino]-2,4-dimethyl-benzoic acid]
